Data on one molecule can be found in US10085955B2, “Methods and compositions for treatment of demyelinating diseases” (Pathologica LLC, priority 2013, dated 2018).

The nature of data set [1]: Multi-species allometric scaling, predicted human pharmacokinetic parameters. Also on record: species or system humans. To be noted: based on Mouse, Dog, Rhesus. An excerpt:
Multi-species allometric scaling based on pharmacokinetic parameters disclosed in Tables 2 and 3 was employed to calculate predicted pharmacokinetic parameters in humans according to methods known in the art. See, e.g., Ings R M, “Interspecies scaling and comparisons in drug development and toxicokinetics,” Xenobiotica, 1990 November; 20(11):1201-31 and Khor, S P et al., “Dihydropyrimidine dehydrogenase inactivation and 5-fluorouracil pharmacokinetics: allometric scaling of animal data, pharmacokinetics and toxicodynamics of 5-fluorouracil in humans,” Cancer Chemother Pharmacol (1997) 39(3): 833-38. Expected values are given below in Tables 6 and 7.

Data set [2] relates to PGE2 production in carrageenan air pouch. In words: Carrageenan air pouch model. The class given is in vivo, Lewis rats. An excerpt: Injection of air subcutaneously will induce the formation of a connective tissue cavity lined with cells that resemble and function like a synovial lining. This method is commonly known as the Air Pouch Model and is a useful animal model of inflammation that can be generated in a relatively short period of time. The air pouch may be created by subcutaneous (SQ) injection of a volume of sterile air in the dorsal neck region. The model may be used to test the efficacy and potency of compounds such as polyamine analogues and polyamine biosynthesis inhibitors such as MGBG in reducing various cellular and biochemical indicators of inflammation when administered as an oral (PO) gavage administration. Healthy Male Lewis rats (Charles River Laboratories, Wilmington, Mass.) weighing between 175-200 g were used. […] A correction factor of 1.49 was used to account for the dihydrochloride salt/monohydrate form of MGBG. […] Air pouches were formed on the dorsum of the rats during the last 4 days of MGBG or vehicle administration prior to carrageenan injection. Briefly, rats were anesthetized with isoflurane, during which dorsal hair was removed and 20 mL of sterile air was injected subcutaneously into the intrascapular region. Pouches were allowed to develop for the next 4 days, with re-inflation (to maintain pouch volume) of pouches 1 day prior to carrageenan injection. One hour prior to carrageenan injection, animals were given their last dose of drug (MGBG, vehicle, naproxen, or dexamethasone). A 1% suspension of carrageenan (2 mL; FMC BioPolyer, Philadelphia, Pa.) suspended in saline was injected into the pouch cavity. At either 3 hours or 24 hours post-carrageenan injection, rats were euthanized by CO2 asphyxiation and 2.5 mL of PBS (Sigma Chemical, St. Louis, Mo.) was injected directly into the pouch. The pouch was opened with surgical scissors and the pouch fluid was collected using a transfer pipette. One aliquot was collected for measurement of total cell count with differential, and the other aliquot for PGE2 determination. […]

Consider `CC(/C=N/NC(=N)N)=N\NC(=N)N` [MGBG, 1,1′ [methylethanediylidene]dinitrilodiguanidine], for which the CL in data set [1] (IV) is on record as 7.9 mL/min/kg; in data set [1] (IV, Rat), 7.7 mL/min/kg; in data set [1] (ORAL), 20.9 mL/min/kg; in data set [1] (ORAL, Rat), 21.0 mL/min/kg. The VSS in data set [1] (IV) is 9.1 L/kg; in data set [1] (IV, Rat), 9.0 L/kg; in data set [1] (ORAL), 41.6 L/kg; in data set [1] (ORAL, Rat), 42.4 L/kg. For the same molecule, the t1/2 in data set [1] (IV) is reported as 13.3 h; in data set [1] (IV, Rat), 13.4 h; in data set [1] (ORAL) it was 23.0 h; in data set [1] (ORAL, Rat), 23.3 h. The “production of PGE2 (inflammatory and basal levels)” value in data set [2] (rat pouch fluid, 3 or 24 hours post-carrageenan, naproxen 10 mg/kg, dexamethasone 1 mg/kg) was “selectively inhibited peak inflammatory production of PGE2, without affecting basal levels”. The “efficacy, changes relative to control indicative of reduced inflammation” value in data set [2] (rats, MGBG 1-60 mg/kg PO once daily 6 days) was “efficacious”.
